# Experimental data published in US20110105436A1, “HETEROARYL COMPOUNDS, COMPOSITIONS, AND METHODS OF USE IN CANCER TREATMENT” (AUCKLAND UNISERVICES LIMITED, priority 2008, published 2011).
# Legend:
# RCC4 cells = assay: XTT assay in VHL-deficient RCC4 cells; type: cell-based; conditions: Homo sapiens, 96 h, XTT assay, VHL-deficient RCC4 cells, four days
# Procedure: (§1) Cell Viability and XTT assays. For cell viability, 100,000 cells were plated in a 12-well plate. The following day, 1.25 μM STF-62247 was added in the presence or absence of 1 mM 3-MA for 24 hours at 37° C. Cells were trypsinized and counted by trypan blue exclusion. For XTT assays, 5000 RCC4 with and without VHL cells or 2,500 SN12C with and without VHL shRNA cells were plated in 96-well plates. The following day, vehicle (DMSO), STF-62247 or each of 19 analogs were added to media by serial dilution. Four days later, the media was aspirated and XTT solution containing 0.3 mg/ml of XTT (Sigma Chemical Co) in Phenol Red-free media, 20% FCS and 2.65 mg/ml N-methyl dibenzopyrazine methyl sulfate (PMS) was added to the cells and incubated at 37° C. for 1-2 hours. Metabolism of XTT was quantified by measuring the absorbance at 450 nm on a plate reader.
# RCC4/VHL cells = assay: XTT assay, RCC4/VHL versus RCC4 cells (selectivity ratio); type: cell-based; conditions: selectivity ratio, IC50 in RCC4/VHL cells/IC50 in RCC4 cells
# Procedure: as §1
# A. RCC4 and RCC4/VHL were treated with 1.25 μM of each 19 analogs for 20 hours and the presence of vacuoles was examined under light microscopy. B. Western blot for LC3 after treatment with each compound. Tubulin was used as loading control. Ratio is the relative from the IC50 in RCC4/VHL cells/IC50 in RCC4 cells. C. Acidic vesicle organelles (AVO) measured by FACS analysis in cells treated with 1.25 μM of STF-62247 or with compounds 21, 15, 25, 47, and 53 and stained with acridine orange.
SMILES,IC50 (RCC4 cells; Table 2) [µM],Ratio (RCC4/VHL cells; Table 2),IC50 (RCC4 cells; Table 1) [µM],Ratio (RCC4/VHL cells; Table 1)
"Cc1cccc(Nc2nc(-c3ccncc3Cl)cs2)c1 [Compound 174, 4-(3-Chloro-4-pyridinyl)-N-(3-methylphenyl)-1,3-thiazol-2-amine]",2.9,>13.8,–,–
Cc1cccc(Nc2nc(-c3ccncc3[N+](=O)[O-])cs2)c1 [Compound 181],8.2,4.1,–,–
"CC(C)c1cccc(Nc2nc(-c3ccncc3)cs2)c1 [Compound 9, N-(3-Isopropylphenyl)-4-(4-pyridinyl)-1,3-thiazol-2-amine]",–,–,17,1.4
"COc1cc(-c2csc(Nc3cccc(C)c3)n2)ccn1 [Compound 141, N-{4-[2-(Methyloxy)-4-pyridinyl]-1,3-thiazol-2-yl}-N-(3-methylphenyl)amine]",28.7,1.2,–,–
"Cc1cccc(Nc2nc(-c3ccnc(CCCO)c3)cs2)c1 [Compound 162, 3-(4-{2-[(3-Methylphenyl)amino]-1,3-thiazol-4-yl}-2-pyridinyl)-1-propanol]",5.2,>7.7,–,–
"COc1ccccc1Nc1nc(-c2ccncc2)cs1 [Compound 109, N-(2-Methoxyphenyl)-4-(4-pyridinyl)-1,3-thiazol-2-amine]",–,–,33.4,>1.2
"Cc1cccc(Nc2nc(-c3ccncc3C#CCO)cs2)c1 [Compound 186, 3-(4-{2-[(3-Methylphenyl)amino]-1,3-thiazol-4-yl}-3-pyridinyl)-2-propyn-1-ol]",0.24,11.9,–,–
"Cc1ccc(Nc2nc(-c3ccncc3)cs2)cc1C [Compound 43, N-(3,4-Dimethylphenyl)-4-(4-pyridinyl)-1,3-thiazol-2-amine]",–,–,6.5,6.4
"Fc1ccccc1Nc1nc(-c2ccncc2)cs1 [Compound 113, N-(2-Fluorophenyl)-4-(4-pyridinyl)-1,3-thiazol-2-amine]",–,–,14.3,>2.8
"Cc1cccc(Nc2nc(-c3ccnc(C#CCO)c3)cs2)c1 [Compound 161, 3-(4-{2-[(3-Methylphenyl)amino]-1,3-thiazol-4-yl}-2-pyridinyl)-2-propyn-1-ol]",9.3,1.6,–,–
"c1cc(-c2csc(Nc3ccc4c(c3)CCC4)n2)ccn1 [Compound 47, N-(2,3-Dihydro-1H-inden-5-yl)-4-(4-pyridinyl)-1,3-thiazol-2-amine]",–,–,2,10
"CN(C)CCc1ccc(Nc2nc(-c3ccncc3)cs2)cc1 [Compound 36, N-{4-[2-(Dimethylamino)ethyl]phenyl}-4-(4-pyridinyl)-1,3-thiazol-2-amine]",–,–,50,1.2
"CCc1cc(-c2csc(Nc3cccc(C)c3)n2)ccn1 [Compound 160, 4-(2-Ethyl-4-pyridinyl)-N-(3-methylphenyl)-1,3-thiazol-2-amine]",6.4,>6.3,–,–
"Cc1cccc(Nc2nc(-c3ccncc3Br)cs2)c1 [Compound 178, 4-(3-Bromo-4-pyridinyl)-N-(3-methylphenyl)-1,3-thiazol-2-amine]",3.9,>10,–,–
"Cc1cccc(Nc2nc(-c3cc(Cl)nc(Cl)c3)cs2)c1 [Compound 158, N-[4-(2,6-Dichloro-4-pyridinyl)-1,3-thiazol-2-yl]-N-(3-methylphenyl)amine]",15,2.3,–,–
"CCN(CC)Cc1sc(Nc2cccc(C)c2)nc1-c1ccncc1 [Compound 84, 5-[(Diethylamino)methyl]-N-(3-methylphenyl)-4-(4-pyridinyl)-1,3-thiazol-2-amine]",–,–,13,1.4
"Cc1cccc(Nc2nc(-c3ccncc3)c(C(=O)N(C)C)s2)c1 [Compound 92, N,N-Dimethyl-2-[(3-methylphenyl)amino]-4-(4-pyridinyl)-1,3-thiazole-5-carboxamide]",–,–,16,>2.5
"COC(=O)/C=C/c1sc(Nc2cccc(C)c2)nc1-c1ccncc1 [Compound 78, Methyl (2E)-3-[2-[(3-Methylphenyl)amino]-4-(4-pyridinyl)-1,3-thiazol-5-yl]-2-propenoate]",–,–,2.5,2.8
"Cc1cccc(Nc2nc(-c3ccncc3)c(C(N)=O)s2)c1 [Compound 91, 2-[(3-Methylphenyl)amino]-4-(4-pyridinyl)-1,3-thiazole-5-carboxamide]",–,–,19.2,>2.0
"CCc1cccc(Nc2nc(-c3ccncc3)cs2)c1 [Compound 7, N-(3-Ethylphenyl)-4-(4-pyridinyl)-1,3-thiazol-2-amine]",–,–,2.5,9.6

SMILES,IC50 (RCC4 cells; Table 2) [µM],Ratio (RCC4/VHL cells; Table 2),IC50 (RCC4 cells; Table 1) [µM],Ratio (RCC4/VHL cells; Table 1)
"Cc1ccc(Nc2nc(-c3ccncc3)c(CO)s2)cc1 [Compound 75, [2-[(4-Methylphenyl)amino]-4-(4-pyridinyl)-1,3-thiazol-5-yl]methanol]",–,–,14,1.2
"Cc1cccc(Nc2nc(-c3ccncc3)c(CCCO)s2)c1 [Compound 81, 3-[2-[(3-Methylphenyl)amino]-4-(4-pyridinyl)-1,3-thiazol-5-yl]-1-propanol]",–,–,3.6,3.7
"Cc1cccc(Nc2nc(-c3ccncc3)c(CO)s2)c1 [Compound 74, [2-[(3-Methylphenyl)amino]-4-(4-pyridinyl)-1,3-thiazol-5-yl]methanol]",–,–,7,2.4
"Cc1cccc(Nc2nc(-c3ccncc3)c(CN3CCCCC3)s2)c1 [Compound 85, N-(3-Methylphenyl)-5-(1-piperidinylmethyl)-4-(4-pyridinyl)-1,3-thiazol-2-amine]",–,–,13,1.9
"OCCc1ccc(Nc2nc(-c3ccncc3)cs2)cc1 [Compound 23, 2-(4-{[4-(4-Pyridinyl)-1,3-thiazol-2-yl]amino}phenyl)ethanol]",–,–,5,16
"Cc1cccc(Nc2nc(-c3ccnc(F)c3)cs2)c1 [Compound 149, 4-(2-Fluoro-4-pyridinyl)-N-(3-methylphenyl)-1,3-thiazol-2-amine]",4.5,>8.9,–,–
"OCc1sc(Nc2ccccc2)nc1-c1ccncc1 [Compound 73, [2-(Phenylamino)-4-(4-pyridinyl)-1,3-thiazol-5-yl]methanol]",–,–,30,>1.3
"Cc1sc(Nc2ccc3c(c2)CCC3)nc1-c1ccncc1 [Compound 72, N-(2,3-Dihydro-1H-inden-5-yl)-5-methyl-4-(4-pyridinyl)-1,3-thiazol-2-amine]",–,–,12,1.5
"C#Cc1cc(-c2csc(Nc3cccc(C)c3)n2)ccn1 [Compound 159, 4-(2-Ethynyl-4-pyridinyl)-N-(3-methylphenyl)-1,3-thiazol-2-amine]",17.8,>2.2,–,–
"CCc1cnccc1-c1csc(Nc2cccc(C)c2)n1 [Compound 185, 4-(3-Ethyl-4-pyridinyl)-N-(3-methylphenyl)-1,3-thiazol-2-amine]",6.2,2.8,–,–
"Clc1cccc(Nc2nc(-c3ccncc3)cs2)c1 [Compound 17, N-(3-Chlorophenyl)-4-(4-pyridinyl)-1,3-thiazol-2-amine]",–,–,3,5
"Clc1ccc(Nc2nc(-c3ccncc3)cs2)cc1 [Compound 31, N-(4-Chlorophenyl)-4-(4-pyridinyl)-1,3-thiazol-2-amine]",–,–,38,>2
"Cc1cccc(Nc2nc(-c3ccncc3F)cs2)c1 [Compound 170, 4-(3-Fluoro-4-pyridinyl)-N-(3-methylphenyl)-1,3-thiazol-2-amine]",2,>20,–,–
"Cc1cccc(N(C)c2nc(-c3ccncc3)cs2)c1 [Compound 95, N-Methyl-N-(3-methylphenyl)-4-(4-pyridinyl)-1,3-thiazol-2-amine]",–,–,28,0.6
"Cc1cc(C)cc(Nc2nc(-c3ccncc3)cs2)c1 [Compound 45, N-(3,5-Dimethylphenyl)-4-(4-pyridinyl)-1,3-thiazol-2-amine]",–,–,4.5,>9
"Clc1ccccc1Nc1nc(-c2ccncc2)cs1 [Compound 115, N-[2-Chlorophenyl]-4-(4-pyridinyl)-1,3-thiazol-2-amine]",–,–,27.6,>1.4
"COc1ccc(Nc2nc(-c3ccncc3)cs2)cc1OC [Compound 55, N-(3,4-Dimethoxyphenyl)-4-(4-pyridinyl)-1,3-thiazol-2-amine]",–,–,24,1.9
"Cc1cccc(Nc2nc(-c3cccnc3)cs2)c1 [Compound 65, N-(3-Methylphenyl)-4-(3-pyridinyl)-1,3-thiazol-2-amine]",–,–,> 40,–
"Oc1ccc(Nc2nc(-c3cccnc3)cs2)cc1 [Compound 66, 4-{[4-(3-Pyridinyl)-1,3-thiazol-2-yl]amino}phenol]",–,–,> 40,–
"FC(F)(F)c1ccc(Nc2nc(-c3ccncc3)cs2)cc1 [Compound 133, 4-(4-Pyridinyl)-N-[4-(trifluoromethyl)phenyl]-1,3-thiazol-2-amine]",–,–,> 40,–
